SMILES	melting point [°C]
Cc1cccc(-c2c(-c3ccc(S(C)(=O)=O)cc3)oc(C)cc2=O)c1 [Compound 11, 2-(4-methanesulfonylphenyl)-6-methyl-3-m-tolylpyran-4-one]	126
Cc1cc(=O)c(-c2ccccc2)c(-c2ccc(S(N)(=O)=O)cc2)o1 [Compound 54, 4-(6-methyl-4-oxo-3-phenyl-4H-pyran-2-yl)benzenesulfonamide]	218
Cc1cc(=O)c(-c2cc(F)ccc2F)c(-c2ccc(S(C)(=O)=O)cc2)o1 [Compound 18, 3-(2,5-difluorophenyl)-2-(4-methanesulfonylphenyl)-6-methylpyran-4-one]	183
Cc1cc(=O)c(-c2ccc(Cl)cc2Cl)c(-c2ccc(S(C)(=O)=O)cc2)o1 [Compound 21, 3-(2,4-dichlorophenyl)-2-(4-methanesulfonylphenyl)-6-methylpyran-4-one]	203
Cc1cc(=O)c(-c2ccc(C(F)(F)F)cc2)c(-c2ccc(S(C)(=O)=O)cc2)o1 [Compound 13, 2-(4-methanesulfonylphenyl)-6-methyl-3-(4-trifluoromethylphenyl)pyran-4-one]	172
Cc1cc(=O)c(-c2ccccc2)c(-c2ccc(S(C)(=O)=O)cc2)o1 [Compound 1, 2-(4-methanesulfonylphenyl) -6-methyl-3-phenylpyran-4-one]	185
Cc1cc(=O)c(-c2ccccc2Cl)c(-c2ccc(S(C)(=O)=O)cc2)o1 [Compound 7, 3-(2-chlorophenyl)-2-(4-methanesulfonylphenyl)-6-methylpyran-4-one]	148
CS(=O)(=O)c1ccc(-c2oc(C(=O)O)cc(=O)c2-c2ccc(Cl)cc2)cc1 [Compound 65, 5-(4-chlorophenyl)-6-(4-methanesulfonylphenyl)-4-oxo-4H-pyran-2-carboxylic acid]	236
Cc1cc(=O)c(-c2ccccc2C)c(-c2ccc(S(C)(=O)=O)cc2)o1 [Compound 12, 2-(4-methanesulfonylphenyl)-6-methyl-3-o-tolylpyran-4-one]	91 to 93
Cc1ccc(-c2c(-c3ccc(S(C)(=O)=O)cc3)oc(C)cc2=O)cc1 [Compound 10, 2-(4-methanesulfonylphenyl)-6-methyl-3-p-tolylpyran-4-one]	205
Cc1cc(=O)c(-c2ccc(F)cc2)c(-c2ccc(S(N)(=O)=O)cc2)o1 [Compound 55, 4-[3 (4-fluorophenyl)-6-methyl-4-oxo-4H-pyran-2-yl]benzenesulfonamide]	247
Cc1cc(=O)c(Oc2ccccc2)c(-c2ccc(S(C)(=O)=O)cc2)o1 [Compound 38, 2-(4-methanesulfonylphenyl)-6-methyl-3-phenoxypyran-4-one]	169
Cc1cc(=O)c(-c2ccc(Cl)c(Cl)c2)c(-c2ccc(S(N)(=O)=O)cc2)o1 [Compound 56, 4-[3-(3,4-dichlorophenyl)-6-methyl-4-oxo-4H-pyran-2-yl]benzenesulfonamide]	128
Cc1cc(=O)c(Oc2ccc(Cl)cc2)c(-c2ccc(S(N)(=O)=O)cc2)o1 [Compound 57, 4-[3-(4-chlorophenoxy)-6-methyl-4-oxo-4H-pyran-2-yl]benzenesulfonamide]	221
Cc1cc(=O)c(-c2c(F)cccc2F)c(-c2ccc(S(C)(=O)=O)cc2)o1 [Compound 19, 3-(2,6-difluorophenyl)-2-(4-methanesulfonylphenyl)-6-methylpyran-4-one]	206
Cc1cc(=O)c(C2CCCCC2)c(-c2ccc(S(C)(=O)=O)cc2)o1 [Compound 33, 3-cyclohexyl-2-(4-methanesulfonylphenyl)-6-methylpyran-4-one]	98 to 99
Cc1cc(=O)c(-c2ccc(F)c(F)c2)c(-c2ccc(S(C)(=O)=O)cc2)o1 [Compound 16, 3-(3,4-difluorophenyl)-2-(4-methanesulfonylphenyl)-6-methylpyran-4-one]	207
Cc1cc(=O)c(-c2ccc(C)c(Cl)c2)c(-c2ccc(S(C)(=O)=O)cc2)o1 [Compound 29, 3-(3-chloro-4-methylphenyl)-2-(4-methanesulfonylphenyl)-6-methylpyran-4-one]	176
Cc1cc(=O)c(-c2cc(F)cc(F)c2)c(-c2ccc(S(C)(=O)=O)cc2)o1 [Compound 17, 3-(3,5-difluorophenyl)-2-(4-methanesulfonylphenyl)-6-methylpyran-4-one]	210
Cc1cc(=O)c(-c2cccc(Cl)c2)c(-c2ccc(S(C)(=O)=O)cc2)o1 [Compound 6, 3-(3-chlorophenyl)-2-(4-methanesulfonylphenyl)-6-methylpyran-4-one]	131
Cc1cc(=O)c(-c2ccc(F)cc2Cl)c(-c2ccc(S(C)(=O)=O)cc2)o1 [Compound 27, 3-(2-chloro-4-fluorophenyl)-2-(4-methanesulfonylphenyl)-6-methylpyran-4-one]	113
CS(=O)(=O)c1ccc(-c2oc(C#N)cc(=O)c2-c2ccc(F)cc2F)cc1 [Compound 59, 5-(2,4-difluorophenyl)-6-(4-methanesulfonylphenyl)-4-oxo-4H-pyran-2-carbonitrile]	113
Cc1cc(=O)c(-c2cccc(F)c2)c(-c2ccc(S(C)(=O)=O)cc2)o1 [Compound 3, 3-(3-fluorophenyl)-2-(4-methanesulfonylphenyl)-6-methylpyran-4-one]	182
CS(=O)(=O)c1ccc(-c2oc(CO)cc(=O)c2-c2ccc(Cl)cc2)cc1 [Compound 60, 3-(4-chlorophenyl)-6-hydroxymethyl-2-(4-methanesulfonylphenyl)pyran-4-one]	120
COCc1cc(=O)c(-c2ccc(Cl)cc2)c(-c2ccc(S(C)(=O)=O)cc2)o1 (hydrate or solvate) [Compound 63, 3-(4-chlorophenyl)-2-(4-methanesulfonylphenyl)-6-methoxymethylpyran-4-one]	162
